Molecules are shown by their SMILES.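 Each compound was tested at five concentrations against cells in 96-well plates for 48 hours. Here, GI50 denotes the concentration required for 50% inhibition of growth.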 The source made the active and inactive calls. No stated cut-off is given here; in the data, active = GI50 up to about 1.1 µM and inactive = higher.

Data on 10 compounds can be found in ChEMBL document CHEMBL1201862, “PubChem BioAssay data set” (2004).

Among the test systems are MOLT-4; SK-OV-3; K562; SK-MEL-28; OVCAR-5; TK-10; Hs-578T; OVCAR-3; SF-539; CAKI-1; UACC-62; MDA-N; CCRF-CEM; M14; UO-31; ACHN; BT-549; OVCAR-8; SF-268; DU-145.
Experiment in all cases: NCI anticancer screen, dose series, 48 h

For `CC1(C)N(OC2CCCCO2)C(c2ccccc2)C(c2ccccc2)=[N+]1[O-]` (stereo not given), the GI50 with MOLT-4 is 30 µM (inactive); in the test on SK-OV-3, > 100 µM (inactive); in the test with K562, 58.9 µM (inactive); in the test on SK-MEL-28, > 100 µM (inactive); with OVCAR-5, > 100 µM (inactive); with TK-10, > 100 µM (inactive). In addition, the GI50 in the test on Hs-578T is 94 µM (inactive); in the test on OVCAR-3 it was 54.3 µM (inactive); with SF-539, > 100 µM (inactive); with CAKI-1, > 100 µM (inactive); with UACC-62 it was > 100 µM (inactive); with MDA-N, > 100 µM (inactive). In addition, the GI50 in the test on CCRF-CEM was 60.5 µM (inactive); with M14, 64 µM (inactive); with UO-31 it was 59.8 µM (inactive); in the test on ACHN it was > 100 µM (inactive); in the test with BT-549, > 100 µM (inactive); in the test with OVCAR-8 it was 32.1 µM (inactive).
In the case of `CO[C@]12C[C@H](CNC(=O)c3cc(Br)c(Br)[nH]3)O[C@H]1NC(=O)N2`, the GI50 in the test on MOLT-4, with SF-268, in the test on SK-OV-3, with DU-145, in the test on K562 and in the test on SK-MEL-28 was > 100 µM (inactive) throughout. The GI50 in the test on OVCAR-5, in the test with TK-10, in the test on Hs-578T, in the test on OVCAR-3, with SF-539 and with CAKI-1 was > 100 µM (inactive) in each case. Further, the GI50 is > 100 µM (inactive) in the test on UACC-62; 0.548 µM (active) in the test on CCRF-CEM; > 100 µM (inactive) in the test on M14; > 100 µM (inactive) in the test on UO-31; > 100 µM (inactive) in the test on ACHN; > 100 µM (inactive) in the test with BT-549. Moreover, in the test with OVCAR-8, the GI50 is > 100 µM (inactive).
Consider `CCOC(=O)c1cc(C2(O)CCN(Cc3ccccc3)C2=O)c(-c2cc(C)no2)[nH]1` (stereo not given), for which the GI50 with MOLT-4 was 12.6 µM (inactive); with SF-268 it was > 100 µM (inactive); in the test with DU-145, 88.9 µM (inactive); with K562 it was 27 µM (inactive); in the test with SK-MEL-28 it was 59.6 µM (inactive); with OVCAR-5, 61.4 µM (inactive). In addition, the GI50 was 67.1 µM (inactive) with TK-10; 34 µM (inactive) with Hs-578T; 36.5 µM (inactive) in the test on OVCAR-3; 89.7 µM (inactive) in the test with SF-539; 32.8 µM (inactive) in the test on CAKI-1; 47.8 µM (inactive) in the test on UACC-62. Also, the GI50 in the test on MDA-N was 57.3 µM (inactive); in the test with CCRF-CEM, 29 µM (inactive); in the test on M14, 55 µM (inactive); in the test on UO-31 it was 32.1 µM (inactive); with ACHN, 45.5 µM (inactive); in the test with BT-549, 66.2 µM (inactive). Moreover, the GI50 with OVCAR-8 was 37.3 µM (inactive).
`CC(=O)OCC1OC(SC2=N/C(=C\c3ccc(Br)s3)C(=O)N2CN2CCOCC2)C(OC(C)=O)C(OC(C)=O)C1OC(C)=O` (stereo not given): the GI50 in the test on MOLT-4 was 20 µM (inactive); with SF-268, 32.8 µM (inactive); with DU-145, 16.5 µM (inactive); in the test on K562, 10.3 µM (inactive); with SK-MEL-28 it was 15.7 µM (inactive); in the test on OVCAR-5, 22.9 µM (inactive). In addition, the GI50 is 16.7 µM (inactive) in the test on TK-10; 19.5 µM (inactive) in the test on Hs-578T; > 10 µM (inactive) in the test with OVCAR-3; 17.9 µM (inactive) in the test with CAKI-1; 15.4 µM (inactive) in the test with UACC-62; 18 µM (inactive) in the test on MDA-N. In addition, the GI50 was 15.5 µM (inactive) with UO-31, 16.2 µM (inactive) in the test on ACHN, 14.9 µM (inactive) in the test on BT-549 and 16.3 µM (inactive) in the test with OVCAR-8.
With `O[C@@H]1[C@H](OC2c3ccccc3-c3ccccc32)[C@H](OCc2ccccc2)[C@@H]2OC[C@H]1O2`, the GI50 in the test with MOLT-4 is 34.1 µM (inactive); with SF-268 it was 57.1 µM (inactive); in the test with DU-145 it was > 100 µM (inactive); in the test on K562 it was > 100 µM (inactive); in the test on SK-MEL-28, > 100 µM (inactive); with OVCAR-5, > 100 µM (inactive). Besides, the GI50 with TK-10 was > 100 µM (inactive); in the test on Hs-578T, 43.4 µM (inactive); in the test with OVCAR-3, > 100 µM (inactive); with SF-539, 23 µM (inactive); with CAKI-1, > 100 µM (inactive); with UACC-62, > 100 µM (inactive). Also, the GI50 is > 100 µM (inactive) with MDA-N; 42.4 µM (inactive) in the test with CCRF-CEM; > 100 µM (inactive) with M14; > 100 µM (inactive) with UO-31; > 100 µM (inactive) in the test with ACHN; > 100 µM (inactive) in the test with BT-549. Besides, the GI50 in the test on OVCAR-8 is 39.6 µM (inactive).
Turning to `CC(=O)Oc1cc(OC(C)=O)c2c(c1C)CC[C@@H]1[C@@H]2CC[C@]2(C)[C@@H](OC(C)=O)CC[C@@H]12`, the GI50 was 11.9 µM (inactive) in the test with MOLT-4; 20.3 µM (inactive) with SF-268; 24.1 µM (inactive) with DU-145; 22 µM (inactive) in the test with K562; 19 µM (inactive) with SK-MEL-28; > 10 µM (inactive) in the test on OVCAR-5. Moreover, the GI50 is 20 µM (inactive) in the test on TK-10; 21.9 µM (inactive) with Hs-578T; 17.3 µM (inactive) in the test with OVCAR-3; 16.1 µM (inactive) with SF-539; 24.5 µM (inactive) in the test on CAKI-1; 18.7 µM (inactive) with UACC-62. Further, the GI50 with MDA-N was 18.6 µM (inactive); in the test on CCRF-CEM it was 17.5 µM (inactive); with M14, 19.5 µM (inactive); in the test on UO-31, 17.5 µM (inactive); with ACHN it was 17.5 µM (inactive); in the test with BT-549 it was 18.5 µM (inactive). Besides, the GI50 with OVCAR-8 was 20.2 µM (inactive).
For `COc1ccc(NC(/C(C(=O)c2ccccc2)=C(\O)C(=O)/C=C(\O)c2ccccc2)c2ccc(OC)cc2)cc1` (stereo not given), the GI50 in the test on MOLT-4 was 42.8 µM (inactive); with SF-268 it was 43.1 µM (inactive); in the test on SK-OV-3, 39.3 µM (inactive); with DU-145 it was 41.6 µM (inactive); in the test with K562 it was 44.3 µM (inactive); with SK-MEL-28 it was 32.9 µM (inactive). For the same compound, the GI50 with OVCAR-5 is > 100 µM (inactive); with TK-10, 30.3 µM (inactive); with Hs-578T, 36 µM (inactive); in the test with OVCAR-3, 21.6 µM (inactive); with SF-539, 38.8 µM (inactive); in the test with CAKI-1, 33.2 µM (inactive). For the same compound, the GI50 in the test on UACC-62 was 52.4 µM (inactive); with CCRF-CEM, 32.8 µM (inactive); in the test on M14, 23.2 µM (inactive); in the test with UO-31, 53.6 µM (inactive); in the test on ACHN, 64.9 µM (inactive); in the test with BT-549 it was 71.6 µM (inactive). In addition, the GI50 with OVCAR-8 is 59.6 µM (inactive).
In the case of `Nc1cc2ncnc(Nc3cccc(Br)c3)c2cn1`, the GI50 in the test with MOLT-4 is > 100 µM (inactive); in the test with SF-268 it was 58.2 µM (inactive); with SK-OV-3, 8.18 µM (inactive); in the test on K562 it was > 100 µM (inactive); in the test on SK-MEL-28, 71.9 µM (inactive); with OVCAR-5, 26.7 µM (inactive). The GI50 in the test on TK-10 was 2.52 µM (inactive); in the test with Hs-578T, 33.7 µM (inactive); in the test on OVCAR-3, 15.8 µM (inactive); in the test on SF-539, 21.9 µM (inactive); in the test with CAKI-1 it was 32.4 µM (inactive); with UACC-62 it was 38.5 µM (inactive). For the same compound, the GI50 is 31 µM (inactive) with MDA-N; 96.8 µM (inactive) in the test with CCRF-CEM; 38 µM (inactive) in the test with M14; 21.5 µM (inactive) in the test on UO-31; 3.44 µM (inactive) in the test with ACHN; > 100 µM (inactive) in the test on BT-549. Further, the GI50 in the test with OVCAR-8 was 36.1 µM (inactive).
`CCOC(=O)c1c(NC(=O)c2ccc(OC)cc2)sc2c1CCCC2`: the GI50 in the test on MOLT-4, with SF-268, in the test with DU-145, in the test on K562, in the test on SK-MEL-28 and in the test on OVCAR-5 was > 100 µM (inactive) in each case. In addition, the GI50 with TK-10, in the test on Hs-578T, in the test with OVCAR-3, in the test on SF-539, in the test with CAKI-1 and in the test on UACC-62 was > 100 µM (inactive) throughout. Moreover, the GI50 with MDA-N, in the test on CCRF-CEM, in the test on M14, in the test with UO-31, in the test on ACHN and with BT-549 was > 100 µM (inactive) throughout. Besides, in the test on OVCAR-8, the GI50 is > 100 µM (inactive).
`COc1cc2nc(-c3ccccc3F)nc(O)c2cc1OC`: the GI50 with MOLT-4 is 70.3 µM (inactive); in the test on SF-268, > 100 µM (inactive); in the test on SK-OV-3, > 100 µM (inactive); in the test on DU-145, > 100 µM (inactive); in the test on K562, > 100 µM (inactive); with OVCAR-5, > 100 µM (inactive). The GI50 with TK-10 was > 100 µM (inactive); in the test with Hs-578T, 42.9 µM (inactive); in the test with OVCAR-3, > 100 µM (inactive); in the test with CAKI-1, > 100 µM (inactive); with UACC-62 it was 60 µM (inactive); with MDA-N, > 100 µM (inactive). In addition, the GI50 in the test on CCRF-CEM was > 100 µM (inactive); with M14, > 100 µM (inactive); in the test on UO-31, 63.2 µM (inactive); with ACHN, > 100 µM (inactive); in the test with BT-549, > 100 µM (inactive); in the test on OVCAR-8, > 100 µM (inactive).
